Assay results from ChEMBL document CHEMBL5344482, “Deconvoluting low yield from weak potency in direct-to-biology workflows with machine learning” (RSC Med Chem, 2024).

Legend:
[1] = target: Replicase polyprotein 1ab (Severe acute respiratory syndrome coronavirus 2, UniProt P0DTD1); assay: Inhibition of SARS-Cov-2 main protease using fluorogenic substrate [5-FAM]-AVLQSGFR-[Lys(Dabcyl)]-K-amide by fluorogenic assay
[2] = target: Replicase polyprotein 1ab (Severe acute respiratory syndrome coronavirus 2) (UniProt P0DTD1); assay: Inhibition of SARS-Cov-2 main protease using fluorogenic substrate [5-FAM]-AVLQSGFR-[Lys(Dabcyl)]-K-amide by fluorogenic assay relative to control

Structure (SMILES) | IC50 [1] | inhibition [2]
NCCc1ccc(C(F)F)cc1 | 50 nM | 
Nc1ncc(C(F)(F)F)cc1Cl |  | 35%
NCCc1cccc(Cl)c1 | 52 nM | 
